Series [1] concerns the target α1-adrenoceptor. The series is described as follows: Competitive radioligand binding, [3H]prazosin, rat cerebral cortex. Conditions: n.a. = no activity at 10–5 M. Here is the method:
The competitive radioligand-binding assay assessed affinity for α1- and α2-adrenoceptors. Experiments were carried out in the rat cerebral cortex. […] The membrane preparation and assay technique followed the previously reported protocol. Radioactivity was measured using the MicroBeta2 scintillation counter (PerkinElmer, Kraków, Poland). The data was adjusted to match a single-site curve-fitting formula using Prism 8 (GraphPad Software, La Jolla, CA, USA), and the Ki values were estimated by means of the Cheng–Prusoff formula.

Series [2] has as its target T1, α2B-adrenoceptor (Homo sapiens, UniProt P18089).
T1 sequence (P18089 1-450): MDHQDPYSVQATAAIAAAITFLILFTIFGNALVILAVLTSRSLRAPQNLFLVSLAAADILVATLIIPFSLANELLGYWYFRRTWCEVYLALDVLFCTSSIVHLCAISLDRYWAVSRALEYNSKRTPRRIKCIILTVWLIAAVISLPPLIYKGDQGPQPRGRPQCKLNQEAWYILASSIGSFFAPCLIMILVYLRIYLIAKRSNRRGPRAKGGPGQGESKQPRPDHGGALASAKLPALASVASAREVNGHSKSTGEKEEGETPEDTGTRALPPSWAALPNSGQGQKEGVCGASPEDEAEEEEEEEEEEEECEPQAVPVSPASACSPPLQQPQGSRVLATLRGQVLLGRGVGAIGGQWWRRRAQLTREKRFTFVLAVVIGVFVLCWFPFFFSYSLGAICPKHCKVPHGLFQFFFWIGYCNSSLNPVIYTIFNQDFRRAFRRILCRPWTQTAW
The experiment in a line: α2B-adrenoceptor intrinsic activity, antagonist mode (AequoScreen). The format is cell-based. The following applies: n.a. = no activity at 10–5 M; read-out: α2B Ant IC50.
Experimental: The determination of intrinsic activity will be performed in accordance with the manufacturer’s Aequoscreen methodology—Perkin Elmer.
The cell density in the 96-well format was 5000 cells per well. Cell preparation for the assay was performed according to the manufacturer’s instructions for AequoScreen (PerkinElmer, Waltham, MA, USA). […] The cells suspension was applied onto the ligands with the injectors of the POLARstar optima reader (BMG Labtech, Ortenberg, Germany). […] The concentration and dilution series having four replicates were prepared as instructed in the AequoScreen Starter Kit Manual (PerkinElmer, Waltham, MA, USA). The wells received cell injections along with either the standard agonist or the compounds being evaluated, while the POLARstar optima reader documented the emitted light over a duration of 20 s. In the antagonist evaluation, cells were administered (50 μL) into the assay plate alongside antagonist solutions (50 μL). A single concentration of agonist (oxymetazoline) was injected (50 μL, final concentration EC80) into the preincubated (15–20 min) plate with cells and antagonist, and the emitted light was recorded for 20 s.

In series [3] the test system is C57BL/6 mice. The experiment in a line: Inhibition of gastric emptying (mouse model, phenol red). Type of series: in vivo. Here is the method: Fifty male C57BL/6 mice (22–27 g) were housed in standard cages while maintaining a 12:12-h light/dark cycle, with food and water available ad libitum. The experimental procedures were performed from 10:00 a.m. to 14:00 p.m.
The experiment was conducted according to Miyasaka et al. and Kotańska et al., with some minor modifications. Mice were subjected to a 20 h food deprivation and a 2 h water deprivation prior to testing. The animals received a vehicle (0.25 mL/mouse) alone or along with various compounds: JP-14 (10 mg/kg b. w.), RT (5 mg/kg body weight), metformin (100 mg/kg b. w.), or loperamide (reference compound; 10 mg/kg b. w.) via gastric gavage. Following a 45 min interval, phenol red (0.5 mL, 0.05% w/v) combined with glucose (1 g/kg body weight) was administered through the same route. Additionally, each group received an intraperitoneal injection of heparin (2500 U/mouse) 20 min prior to the collection of stomach contents. Seven mice treated with the vehicle were sacrificed immediately after the phenol red administration to serve as a standard control (representing 100% phenol red in the stomach at 0 min), establishing a baseline for maximum absorbance (100%). The leftover mice were sacrificed 30 min later. The stomachs were removed and homogenized using an OMNI homogenizer (OMNI International Company, Kennesaw, GA, USA), with 10 mL of 0.1 N NaOH. To 5 mL of homogenate, 0.5 mL of 20% w/v solution of trichloroacetic acid was incorporated to precipitate the proteins. Subsequently, the samples were centrifuged at 600× g for 15 min at a temperature of 20 °C, and 0.25 mL of supernatant was mixed with 1 mL of 0.5 N NaOH to achieve maximum color intensity. The concentration of phenol red was measured using spectrophotometry, with absorbance evaluated at a wavelength of 560 nm (MuLTISKAN.GO, Thermo Fisher Scientific Inc., Waltham, MA USA). For each mouse, the percentage of gastric emptying (GE %) was calculated using the following equation:(1) GE%=(Ac0−Ab)/(Ac0−Ac30)×100% where: Ac0 is the absorbance of the control gastric sample collected immediately after dye administration, and Ac30 is the absorbance of the control gastric sample collected 30 min after dye administration, i.e., Ac0–Ac30 = 100% gastric emptying.

For series [4], the system named is 3T3L1 cell line. Type of series: cell-based. The following applies: mouse, 24 h. Here is the method:
(§1) Prior to investigating the biological activity and molecular characteristics of the test compounds in vitro, a comprehensive cytotoxicity screening was performed using HepG2 and 3T3-L1 cell lines. Two complementary assays were applied: one based on the quantification of adenylate kinase release as an indicator of cell membrane damage, and another relying on resazurin reduction to assess cellular metabolic activity. These complementary assays enable sensitive and reliable detection of cytotoxic effects across diverse cell types. This preliminary assessment was carried out to ensure that subsequent functional analyses would not be confounded by nonspecific cytotoxic effects.
(§2) The damage of cell membrane was evaluated with the ToxiLight BioAssay Kit from Lonza (Visp, Switzerland). This test is very sensitive and measures cell damage by looking at the release of adenylate kinase (AK). After 24 h of treatment, 5 µL of culture supernatant was transferred to a 384-well white plate (PerkinElmer, Singapore), followed by the addition of 20 µL of Adenylate Kinase Detection Reagent (AKDR). After a 10 min incubation at room temperature, luminescence was measured using the POLARstar Omega plate reader (BMG Labtech, Ortenberg, Germany). Results were expressed as a percentage relative to a lysed control (100% cell death).

The subject of series [5] is HEPG2 cell line. Type of series: cell-based. Conditions: human, 24 h. Here is the method:
as §1, §2

Series [6] has as its system Danio rerio larvae. The series is described as follows: In vivo toxicity assay in zebrafish larvae (Casper and ABTL lines). Here is the method: To determine the toxicity of JP-14 to zebrafish larvae, 76 h post-fertilized (hpf) larvae ([…], ten per well) were kept in a 6-well plate and exposed to three concentrations of compound JP-14 diluted with embryonic medium (E3), whereas untreated larvae served as control (E3 alone). Each concentration was incubated in twelve wells. The mortality rate and disturbances were determined using a microscope (OPTA-TECH MN16, Warszawa, Poland) after 24 h of exposure.

The text below walks through data of PMC12563652 (International Journal of Molecular Sciences, 2025).

Read-outs that look alike come from different tables or passages of the source.

Turning to `[H]/N=C(\N)NN=Cc1c(Cl)cncc1Cl` [JP-14, (E)-2-((3,5-Dichloropyridin-4-yl)Methylene)Hydrazine-1-Carboximidamide], in series [1], the “α1 Ki” value is given as “did not exhibit notable affinity”. The IC50 (usually the point on the concentration scale where inhibition reaches its midpoint) in series [2] amounted to 622 nM. In addition, in series [3] (JP-14 10 mg/kg + RTI-7470-44 5 mg/kg b.w.), the “reduction of the effect of JP-14 on gastric emptying by RTI-7470-44” value was “about 40%”. The “percentage inhibition of gastric emptying” value in series [3] (JP-14 10 mg/kg b.w. combined with RTI-7470-44 5 mg/kg b.w.) is listed as “about 25%”; in series [3] (intragastric, 10 mg/kg b.w.) it was “about 66%”. For the same compound, the “membrane integrity, percentage relative to control (death cells)” value in series [4] (0.1 μM) turned out to be 6%; in series [4] (1 μM), 6%; in series [4] (10 μM) it was 5%; in series [4] (50 μM), 4%; in series [4] (100 μM) it was 5%; in series [5] (0.1 μM), 6%. For the same compound, the “membrane integrity, percentage relative to control (death cells)” value in series [5] (1 μM) worked out at 6%; in series [5] (10 μM) it was 6%; in series [5] (50 μM) it was 10%; in series [5] (100 μM), 8%. Besides, the effect on pigmentation result in series [6] is reported as “no effect on pigmentation was observed”. Also, the “concentration not causing any visible disturbances” value in series [6] (Casper and AB/TL lines, zebrafish (Danio rerio), 24 h) turned out to be 10000 ng/mL.
